# Like-named read-outs stand apart in the source and are kept apart here.
# What was measured:
# HUVEC = HUVEC proliferation assay ([3H]thymidine incorporation); format: cell-based, human; settings: HUVEC; for IC50: Homo sapiens; for Proliferation (IC50/IC50 Itra): IC50 of analog relative to IC50 of itraconazole
# Method: The activity of the analogs against HUVEC proliferation, an in vitro proxy for angiogenesis inhibition (Table 3) was analyzed. […]
# Pooled HUVEC (Lonza) were grown in EGM-2 bullet kit media (Lonza) and used at passage eight or lower. The proliferation assays were conducted as previously described (Nacev, B.; Low, W. K.; Huang, Z.; Su, T.; Su, Z.; Alkuraya, H.; Kasuga, D.; Sun, W.; Trager, M.; Braun, M.; Fischer, G.; Zhang, K.; Liu, J. O., Acalcineurin-independent mechanism of angiogenesis inhibition by anon-immunosuppressive Cyclosporin Aanalog. J. Pharmacol. Exp. Ther. 2011, DOI:10.1124/jpet.111.18085).
# CYP3A4 = target: T1, CYP3A4 (Homo sapiens, UniProt P08684); test: CYP3A4 enzyme assay (Vivid CYP3A4 Green Screening Kit); format: in vitro ADME; settings: for CYP3A4 Inhibition (compared to intracozanole at 1 μm): % enzyme inhibition at 1 μM drug / % enzyme inhibition at 1 μM itraconazole
# T1 construct: purchased ThermoFisher P2857; host or cells: baculosomes
# Method: And CYP3A4 inhibition was initially determined using a cell-free fluorescence-based assay at a final concentration of 1 μM (Table 7).
# CYP3A4 enzyme assay. CYP3A4 enzyme activity was tested using Vivid™ CYP3A4 Green Screening Kit (ThermoFisher, #P2857) using the manufacturer's protocol. Briefly, CYP3A4 baculosomes and drugs were incubated 10 min at 37° C. Then Vivid® Substrates were added and the fluorescence (ex/em:485/520) were read every 1 min for 60 minute.
# VEGFR2 = VEGFR2 glycosylation in HUVEC (Western blot scoring); format: cell-based, human; settings: VEGFR2 hypoglycosylation score in HUVEC, 2 μM, 24 h
# Method: VEGFR2 hypoglycosylation was scored either robust (++), intermediate (+), or absent (−) (FIG. 6).
# HUVEC were seeded at 5×10^4 per well of a 6-well plate in 3 mL of media. After an overnight recovery, the media was replaced with 2 mL fresh media and the analogs were added from 200× stocks in DMSO. Following a 24-h incubation, the media was aspirated and 2×SDS sample buffer was added to the cells which were incubated on ice for 10 min and then boiled for 10 min. […] Following three washes in TBS-T, the membrane was incubated with anti-rabbit horseradish peroxidase conjugated IgG (GE Healthcare) (1:5000-1:10000 dilution) in 1% BSA in TBS-T. The membranes were washed three times in TBS-T, incubated for 1-5 minutes with ECL substrate (Immobilon Wester, Milipore) and visualized (Kodak Image Staion 440 CF).
# [1] = system: MB cultures derived from Ptch−/+; p53−/− mice; test: Medulloblastoma (MB) proliferation assay; format: cell-based, mouse; settings: mouse medulloblastoma cultures, 96 h; relative to itraconazole
# From the text: These cultures were derived from Ptch^−/+; p53^−/− mice that spontaneously develop medulloblastoma associated with ligand independent Hh pathway activation.
# MB cultures were derived from mouse Ptch^−/+; p53^−/− MB grown as hind-flank allografts in nude mice (Harlan). Briefly, tumors were mechanically disrupted and made into single cell suspensions by two passages through a 70 μm nylon filter. Cells were pelleted by centrifugation and resuspended in PBS pH 7.4 twice. The cell suspension was then subjected to centrifugation at 1000×g for 25 min over a ficoll gradient. The viable cell layer formed at the ficoll boundary was then collected, suspended in PBS, and pelleted by centrifugation. The resulting pellet was then suspended and cultured as “neurospheres” in Neurobasal Media-A supplemented with retinoic acid deficient B-27 extract (NBMedia). Cells were cultured for three passages, with neurospheres disaggregated using Accumax (Innovative Cell Technologies) between passages.
# Cultured MB neurospheres were disaggregated as described and 1×10^4 cells were seeded into wells of a 96-well assay plate in NBMedia and exposed to multiple analogue concentrations: Relative cell numbers following a 96-h incubation were quantified by CellTiter 96® AQueous One Solution Cell Proliferation Assay (Promega) per manufacturer's recommendations using a SpectraMax M2e spectrophotometer and SoftMax Pro software (Molecular Devices). Data was analyzed using Prism5 (GraphPad Software) and IC50 and IC90 values were determined from dose-response curves fitted to mean corrected absorbance normalized to control treatment.
# Gli1 transcript = test: Quantification of Gli1 transcript by TaqMan analysis in MB cells (Hh pathway); format: cell-based, mouse; settings: Gli1 transcript fold induction score; MB cells exposed 24 h at the IC90 for MB proliferation
# From the text: Inhibitors of the Hh pathway are known to inhibit MB cell proliferation. However, MB cell proliferation is also affected by drugs with targets other than Hh signaling.
# Following drug exposure, cells were washed in PBS and pelleted by centrifugation at 300×g. Cell pellets were lysed in Trizol reagent (Invitrogen). Total RNA was separated and collected in the aqueous phase following centrifugation of lysate in the presence of chloroform. Total RNA was ethanol precipitated and purified over RNeasy Mini Kit (Qiagen) filter columns per manufacturer's recommendations. Transcript levels were quantified using gene-specific TaqMan primer/probe sets and the StepOne Plus Real-Time PCR system (Applied Biosystems) on cDNA reverse transcribed using the QuantiTect Reverse Transcription Kit (Qiagen) per manufacturers' recommendations. Results were quantified using StepOne Plus software v2.1 (Applied Biosystems) and were expressed as fold induction relative to control samples using the A ΔCt (2^−ΔΔCt) method with actin as an internal control. The primer/probe set (Applied Biosystems) for TaqMan PCR for mouse Gli-1 was Mm00494645_m1, and for mouse actin was Mm00607939_s1.
# [2] = 3H thymidine incorporation, in μM, read-out: Proliferation IC50
# T1 sequence (P08684 whole entry): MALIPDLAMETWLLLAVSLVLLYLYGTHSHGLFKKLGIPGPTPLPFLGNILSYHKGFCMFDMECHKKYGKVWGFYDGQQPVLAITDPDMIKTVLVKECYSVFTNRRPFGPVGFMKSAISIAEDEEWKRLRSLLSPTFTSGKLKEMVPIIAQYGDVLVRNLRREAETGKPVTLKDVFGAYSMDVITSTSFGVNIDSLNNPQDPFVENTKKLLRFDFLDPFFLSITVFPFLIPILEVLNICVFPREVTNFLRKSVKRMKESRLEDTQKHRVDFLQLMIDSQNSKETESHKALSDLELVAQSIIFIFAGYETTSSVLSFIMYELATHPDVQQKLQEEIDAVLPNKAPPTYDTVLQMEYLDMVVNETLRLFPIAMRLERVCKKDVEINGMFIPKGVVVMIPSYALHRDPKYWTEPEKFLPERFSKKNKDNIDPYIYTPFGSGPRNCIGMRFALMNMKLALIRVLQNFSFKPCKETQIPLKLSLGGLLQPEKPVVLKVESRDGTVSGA
Compound,IC50 (HUVEC; read-out: IC50 for inhibition of HUVEC proliferation),IC50 (HUVEC; [2]),CYP3A4 inhibition in the initial screening (CYP3A4; 1 μM),CYP3A4 Inhibition (compared to intracozanole at 1 μm) (CYP3A4),Proliferation (IC50/IC50 Itra) (HUVEC),Glycosylation (2 μM dose) (VEGFR2),MB Proliferation (IC50/IC50 Itra) [1],Gli I Inhibition (IC90 Prolif. dose) (Gli1 transcript)
"CCC(C)n1ncn(-c2ccc(N3CCN(c4ccc(OC[C@@H]5CO[C@@](Cn6cnc(C(F)(F)F)n6)(c6ccc(Cl)cc6Cl)O5)cc4)CC3)cc2)c1=O (stereo partly drawn) [Compound 251, 1-sec-butyl-4-(4-(4-(4-(((2S,4R)-2-(2,4-dichlorophenyl)-2-((3-(trifluoromethyl)-1H-1,2,4-triazol-1-yl)methyl)-1,3-dioxolan-4-yl)methoxy)phenyl)piperazin-1-yl)phenyl)-1H-1,2,4-triazol-5(4H)-one]",0.27 µM,0.272 µM,eliminated CYP3A4 inhibition,No inhibition,,,,
"CCC(C)n1ncn(-c2ccc(N3CCN(c4ccc(OC[C@@H]5CO[C@@](Cn6ccnc6C)(c6ccc(Cl)cc6Cl)O5)cc4)CC3)cc2)c1=O (stereo partly drawn) [Compound 235, 1-sec-butyl-4-(4-(4-(4-(((2S,4R)-2-(2,4-dichlorophenyl)-2-((2-methyl-1H-imidazol-1-yl)methyl)-1,3-dioxolan-4-yl)methoxy)phenyl)piperazin-1-yl)phenyl)-1H-1,2,4-triazol-5(4H)-one]",,0.173 µM,,0.85,,,,
"CCCn1ncn(-c2ccc(N3CCN(c4ccc(OC[C@@H]5CO[C@@](Cn6cncn6)(c6ccc(Cl)cc6Cl)O5)cc4)CC3)cc2)c1=O (relative stereo) [Compound 7c, cis-(2S,4R)-4-[4-[4-[4-[[2-(2,4-Dichlorophenyl)-2-(1H-1,2,4-triazol-1-ylmethyl)-1,3-dioxolan-4-yl]methoxy]phenyl]-lpiperazinyl]phenyl]-2,4-dihydro-2-propyl-3H-1,2,4-triazol-3-one]",,,,,1.06,+,1.01,++ (≤0.15)
"CCC(C)n1ncn(-c2ccc(N3CCN(c4ccc(OC[C@@H]5CO[C@@](Cc6ccccc6)(c6ccc(Cl)cc6Cl)O5)cc4)CC3)cc2)c1=O (stereo partly drawn) [Compound 260, 4-(4-(4-(4-(((2R,4R)-2-benzyl-2-(2,4-dichlorophenyl)-1,3-dioxolan-4-yl)methoxy)phenyl)piperazin-1-yl)phenyl)-1-sec-butyl-1H-1,2,4-triazol-5(4H)-one]",,,,No inhibition,,,,
"CC/C=C\CCn1ncn(-c2ccc(N3CCN(c4ccc(OCC5COC(Cn6cncn6)(c6ccc(Cl)cc6Cl)O5)cc4)CC3)cc2)c1=O [Compound 7t, cis-(2S,4R)-4-[4-[4-[4-[[2-(2,4-Dichlorophenyl)-2-(1H-1,2,4-triazol-1-ylmethyl)-13-dioxolan-4-yl]methoxy]phenyl]-lpiperazinyl]phenyl]-2,4-dihydro-2-((Z)-hex-3-enyl)-3H-1,2,4-triazol-3-one]",,,,,0.73,−,0.94,++ (≤0.15)
"O=c1n(-c2ccc(N3CCN(c4ccc(OCC5COC(Cn6cncn6)(c6ccc(Cl)cc6Cl)O5)cc4)CC3)cc2)cnn1CC1CCCC1 [Compound 7l, cis-(2S,4R)-4-[4-[4-[4-[[2-(2/l-Dichlorophenyl)-2-(1H-1,2,4-triazol-1-ylmethyl)-1,3-dioxolan-4-yl]methoxy]phenyl]-lpiperazinyl]phenyl]-2,4-dihydro-2-(1-cyclopentylmethyl)-3H-1,2,4-triazol-3-one]",,,,,0.50,++,0.50,+ (0.16 to 0.44)
"CCCCn1ncn(-c2ccc(N3CCN(c4ccc(OC[C@@H]5CO[C@@](Cn6cncn6)(c6ccc(Cl)cc6Cl)O5)cc4)CC3)cc2)c1=O (relative stereo) [Compound 7e, cis-(2S,4R)-4-[4-[4-[4-[[2-(2,4-Dichlorophenyl)-2-(1H-1,2,4-triazol-1-ylmethyl)-1,3-dioxolan-4-yl]methoxy]phenyl]-lpiperazinyl]phenyl]-2,4-dihydro-2-butyl-3H-1,2,4-triazol-3-one]",,,,,2.10,−,0.70,− (≥0.45)
"CCC(CC)n1ncn(-c2ccc(N3CCN(c4ccc(OCC5COC(Cn6cncn6)(c6ccc(Cl)cc6Cl)O5)cc4)CC3)cc2)c1=O [Compound 7j, cis-(2S,4R)-4-[4-[4-[4-[[2-(2,4-Dichlorophenyl)-2-(1H-1,2,4-triazol-1-ylmethyl)-1,3-dioxolan-4-yl]methoxy]phenyl]-lpiperazinyl]phenyl]-2,4-dihydro-2-(1-ethylpropyl)-3H-1,2,4-triazol-3-one]",,,,,1.10,+,0.54,++ (≤0.15)
"CC(C)Cn1ncn(-c2ccc(N3CCN(c4ccc(OC[C@@H]5CO[C@@](Cn6cncn6)(c6ccc(Cl)cc6Cl)O5)cc4)CC3)cc2)c1=O (relative stereo) [Compound 7f, cis-(2S,4R)-4-[4-[4-[4-[[2-(2,4-Dichlorophenyl)-2-(H,2,4-triazol-1-ylmethyl)-1,3-dioxolan-4-yl]methoxy]phenyl]-lpiperazinyl]phenyl]-2,4-dihydro-2-isobutyl-3H-1,2,4-triazol-3-one]",,,,,1.32,++,0.86,− (≥0.45)
"CC(C)CCn1ncn(-c2ccc(N3CCN(c4ccc(OC[C@@H]5CO[C@@](Cn6cncn6)(c6ccc(Cl)cc6Cl)O5)cc4)CC3)cc2)c1=O (relative stereo) [Compound 7i, cis-(2S,4R)-4-[4-[4-[4-[[2-(2,4-Dichlorophenyl)-2-(1H-1,2,4-triazol-1-ylmethyl)-1,3-dioxolan-4-yl]methoxy]phenyl]-lpiperazinyl]phenyl]-2,4-dihydro-2-(3-methylbutyl)-3H-1,2,4-triazol-3-one]",,,,,1.42,+,0.41,++ (≤0.15)
